Measurements published in ChEMBL document CHEMBL1201862, “PubChem BioAssay data set” (2004).
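Results reflect a 48-hour exposure of cells in 96-well plates to compound at five concentrations. At the GI50, growth is halved.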 Calls of active or inactive are those of the source. Cut-off read from the data, not from the text of the source: active = GI50 up to about 1.1 µM and inactive = higher.

Key:
Test in all cases: NCI-60 cell line screen, 48 h
[1] = system: A549
[2] = system: ACHN
[3] = system: CAKI-1
[4] = system: CCRF-CEM
[5] = system: COLO 205
[6] = system: DLD-1
[7] = system: DMS-114
[8] = system: DMS-273
[9] = system: EKVX
[10] = system: HCT-116
[11] = system: HCT-15
[12] = system: HL-60
[13] = system: HOP-62
[14] = system: HOP-92
[15] = system: HT-29
[16] = system: IGROV-1
[17] = system: K562
[18] = system: KM12
[19] = system: LOX IMVI
[20] = system: LXFL 529
[21] = system: M14
[22] = system: M19-MEL
[23] = system: MOLT-4
[24] = system: NCI-H226
[25] = system: NCI-H23
[26] = system: NCI-H460
[27] = system: NCI-H522
[28] = system: OVCAR-3
[29] = system: OVCAR-4
[30] = system: OVCAR-5
[31] = system: OVCAR-8
[32] = system: RPMI-8226
[33] = system: SF-268
[34] = system: SF-295
[35] = system: SF-539
[36] = system: SK-MEL-2
[37] = system: SK-MEL-5
[38] = system: SK-OV-3
[39] = system: SN12C
[40] = system: SNB-75
[41] = system: SR
[42] = system: SW-620
[43] = system: U-251
[44] = system: UACC-62
[45] = system: UO-31
[46] = system: XF498
[47] = system: 786-0
[48] = system: HCC 2998
[49] = system: HOP-18
[50] = system: Malme-3M
[51] = system: SNB-19
[52] = system: SNB-78
[53] = system: TK-10
[54] = system: UACC-257
[55] = system: A498
[56] = system: BT-549
[57] = system: DU-145
[58] = system: Hs-578T
[59] = system: MCF7
[60] = system: MDA-MB-231
[61] = system: MDA-MB-435
[62] = system: MDA-N
[63] = system: NCI/ADR-RES
[64] = system: PC-3
[65] = system: RXF 393
[66] = system: SK-MEL-28
[67] = system: T47D
[68] = system: KM-20L2

Measured: GI50

CC1(C)CCc2cc3c(cc2O1)OC(C)(C)CC3=O
inactive: [1] 75.2 µM | [2] 88.9 µM | [3] 52.5 µM | [4] 76.6 µM | [5] > 100 µM | [6] 97.5 µM | [7] 40.9 µM | [8] 71.3 µM | [9] 93.5 µM | [10] 71.1 µM | [12] 23.4 µM | [13] 23.2 µM | [14] 17.5 µM | [15] 35.6 µM | [16] > 100 µM | [17] 44.6 µM | [18] > 100 µM | [19] > 100 µM | [20] 81.5 µM | [21] > 100 µM | [22] 88.7 µM | [23] 46.8 µM | [24] 34.2 µM | [25] 91.6 µM | [26] > 100 µM | [27] 2.39 µM | [28] 27.5 µM | [29] 62.8 µM | [30] 46.8 µM | [31] > 100 µM | [32] > 100 µM | [33] > 100 µM | [34] > 100 µM | [35] > 100 µM | [36] > 100 µM | [37] 21.1 µM | [38] > 100 µM | [39] 65.5 µM | [40] 70.8 µM | [41] 57.5 µM | [42] > 100 µM | [43] 90.8 µM | [44] > 100 µM | [45] 40.3 µM | [46] 50.8 µM
91.8 µM: [11]

CSc1nc(NC2OC(COC(C)=O)C(OC(C)=O)C(OC(C)=O)C2OC(C)=O)c(/N=C(\C)C(C)=O)c(=O)[nH]1 (stereo unspecified)
inactive: [47] > 100 µM | [1] > 100 µM | [3] > 100 µM | [4] > 100 µM | [5] > 100 µM | [6] 79.1 µM | [7] > 100 µM | [9] > 100 µM | [48] > 100 µM | [10] > 100 µM | [12] > 100 µM | [49] > 100 µM | [13] 42.5 µM | [14] > 100 µM | [15] > 100 µM | [16] > 100 µM | [17] > 100 µM | [18] > 100 µM | [21] > 100 µM | [22] > 100 µM | [23] > 100 µM | [50] > 100 µM | [24] > 100 µM | [28] > 100 µM | [29] > 100 µM | [31] > 100 µM | [32] > 100 µM | [34] > 100 µM | [35] > 100 µM | [36] > 100 µM | [37] > 100 µM | [38] > 100 µM | [51] > 100 µM | [52] > 100 µM | [42] > 100 µM | [53] > 100 µM | [54] > 100 µM | [44] > 100 µM | [45] > 100 µM

COC(=O)C1OC(O[C@H]2CC[C@]3(C)[C@H]4CC=C5[C@@H]6CC(C)(C)CC[C@]6(C(=O)OC6OCC(O)C(O)C6OC6OC(C)C(OC7OCC(O)C(O)C7O)C(OC7OCC(O)(CO)C7O)C6O)[C@H](O)C[C@@]5(C)[C@]4(C)CC[C@H]3C2(C)C)C(O)C(O)C1O (stereo partly specified)
10.3 µM: [11]
inactive: [47] 7.45 µM | [55] 1.76 µM | [1] 3.52 µM | [2] 3.31 µM | [56] 2.64 µM | [3] 4.69 µM | [4] 14.9 µM | [5] 1.57 µM | [57] 8.53 µM | [9] 2.77 µM | [48] 2.29 µM | [10] 3.61 µM | [12] 2.35 µM | [13] 3.13 µM | [14] 1.83 µM | [15] 2.54 µM | [58] 11.9 µM | [16] 12.1 µM | [17] 5.08 µM | [18] 2.88 µM | [19] 7.64 µM | [21] 2.82 µM | [59] 1.38 µM | [60] 2.32 µM | [61] 1.89 µM | [62] 2.01 µM | [23] 5.13 µM | [50] 4.14 µM | [24] 4.23 µM | [25] 1.8 µM | [26] 16.3 µM | [27] 2.14 µM | [63] 4.91 µM | [28] 8.63 µM | [29] 4.98 µM | [30] 3.97 µM | [31] 10.5 µM | [64] 3.85 µM | [32] 3.86 µM | [65] 10.9 µM | [33] 10 µM | [34] 4.43 µM | [35] 31.6 µM | [66] 2.2 µM | [36] 2.56 µM | [37] 4.65 µM | [38] 12.2 µM | [39] 1.85 µM | [51] 5.57 µM | [40] 6.27 µM | [41] 2.08 µM | [42] 6.28 µM | [67] 3.86 µM | [53] 15.9 µM | [43] 6.5 µM | [54] 2.96 µM | [44] 2.51 µM | [45] 1.81 µM

Cc1c2ccnc(-c3ccccc3)c2cc2c1[nH]c1ccccc12
active: [55] 0.219 µM | [3] 0.655 µM | [5] 0.735 µM | [8] 0.425 µM | [15] 0.887 µM | [19] 1.05 µM | [22] 0.959 µM | [25] 1.01 µM | [26] 1.06 µM | [63] 0.492 µM | [34] 0.879 µM | [37] 0.614 µM | [43] 0.873 µM | [44] 1.09 µM
0.773 µM: [11]
inactive: [1] 1.29 µM | [4] 3.26 µM | [6] 2.99 µM | [7] 1.69 µM | [9] 2.92 µM | [48] 3.07 µM | [10] 2.12 µM | [12] 2.09 µM | [49] 2.15 µM | [13] 2.6 µM | [14] 1.25 µM | [16] 2.63 µM | [17] 1.58 µM | [68] 2.61 µM | [18] 1.45 µM | [59] 2.13 µM | [23] 2.75 µM | [50] 3.37 µM | [24] 2.64 µM | [27] 4.52 µM | [28] 3.4 µM | [29] 2.56 µM | [30] 3.77 µM | [31] 1.13 µM | [32] 2.77 µM | [65] 2.42 µM | [33] 4.31 µM | [35] 2.45 µM | [66] 4.29 µM | [36] 2.62 µM | [38] 2.9 µM | [39] 2.99 µM | [51] 3.66 µM | [40] 2.33 µM | [52] 4.32 µM | [42] 2.48 µM | [54] 2.7 µM | [45] 1.33 µM

COc1ccc(-c2cs/c(=N\c3ccccc3)n2CC(O)c2ccc([N+](=O)[O-])cc2)cc1 (stereo unspecified)
inactive: [47] > 100 µM | [55] > 100 µM | [1] > 100 µM | [2] > 100 µM | [56] > 100 µM | [3] > 100 µM | [4] > 71.1 µM | [5] > 100 µM | [57] > 100 µM | [9] > 100 µM | [48] > 100 µM | [10] > 29.9 µM | [12] > 100 µM | [13] > 100 µM | [14] > 100 µM | [15] > 100 µM | [58] > 100 µM | [16] > 100 µM | [17] 3.84 µM | [18] > 100 µM | [19] > 100 µM | [21] > 100 µM | [59] > 63.8 µM | [60] > 100 µM | [61] > 100 µM | [62] > 100 µM | [23] 4.06 µM | [50] > 100 µM | [24] > 100 µM | [25] > 100 µM | [26] > 100 µM | [27] > 100 µM | [63] > 74.5 µM | [28] > 100 µM | [29] > 100 µM | [30] > 100 µM | [31] > 100 µM | [64] > 100 µM | [32] 6.37 µM | [65] > 100 µM | [33] > 100 µM | [34] > 100 µM | [35] > 100 µM | [66] > 100 µM | [36] > 100 µM | [37] 4.04 µM | [38] > 100 µM | [39] > 100 µM | [51] > 100 µM | [40] > 100 µM | [41] 4.25 µM | [42] > 100 µM | [67] 5.42 µM | [53] > 100 µM | [43] > 100 µM | [54] > 76.9 µM | [44] > 73.5 µM | [45] > 100 µM
> 100 µM: [11]
